Results on one compound are retold here after patent publication US20080312333A1, “Agent for Preventing/Ameliorating Life Style-Related Diseases Containing Turmeric Essential Oil Component” (Kaneka Corporation, priority 2004, published 2008).

This assay deals with T1, PPARγ (Homo sapiens, UniProt P37231).
T1 construct: GAL4 (yeast transcription factor, amino acids 1-147); expressed in transfected cells; host or cells: CV-1 cells (African green monkey kidney)
T1 sequence (P37231 204-505): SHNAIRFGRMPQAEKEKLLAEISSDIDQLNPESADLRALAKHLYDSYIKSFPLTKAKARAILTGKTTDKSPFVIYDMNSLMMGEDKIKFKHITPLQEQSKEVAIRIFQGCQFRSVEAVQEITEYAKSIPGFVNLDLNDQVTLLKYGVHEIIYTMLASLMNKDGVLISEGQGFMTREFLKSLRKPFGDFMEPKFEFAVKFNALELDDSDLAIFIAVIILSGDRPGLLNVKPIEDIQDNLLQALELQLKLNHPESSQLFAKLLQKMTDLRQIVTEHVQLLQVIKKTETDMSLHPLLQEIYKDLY
The assay can be described thus: PPARγ ligand activity, GAL4-PPARγ ligand binding site luciferase reporter in CV-1 cells. The format is cell-based. Conditions: for PPARγ ligand activity: ratio to no treatment control (1.00), mean ± standard error, n = 3. The method, then: CV-1 cells (male African green monkey kidney-derived cultured cells) were seeded onto a 96-well culture plate (6×10^3 cells/well) and cultured under conditions of 37° C. and 5% CO2 for 24 hours. The medium used was DMEM (Dulbecco's modified Eagle medium; GIBCO) supplemented with 10% FBS (fetal bovine serum), 10 ml/L of a solution of penicillin and streptomycin (5,000 IU/ml and 5,000 μg/ml, respectively; GIBCO) and 37 mg/L of ascorbic acid (Wako Pure Chemical Industries, Ltd.). […] Each sample was dissolved in dimethyl sulfoxide (DMSO) and the solution, or DMSO used in a no treatment control group, was added to the medium to each concentration given in Table 4. Cells were washed with phosphate-buffered saline (PBS+) containing Ca and Mg, then luclite (PerkinElmer), a luciferase chemiluminescence reagent, was added, and the luciferase-due chemiluminescence intensity was measured using a TopCount microplate scintillation/luminescence counter (PerkinElmer).

Regarding `CC(C)=CC(=O)C[C@H](C)c1ccc(C)cc1` [ar-turmerone], the PPARγ ligand activity by setting is: (addition level 2 μg/ml) 1.51 ± 0.14; (addition level 5 μg/ml) 2.33 ± 0.59. Further, under “summary of Table 4”, the “PPARγ ligand activity (in words)” value was “found to have PPARγ ligand activity”.
